In ChEMBL document CHEMBL4814006, “Novel amino substituted tetracyclic imidazo[4,5-b]pyridine derivatives: Design, synthesis, antiproliferative activity and DNA/RNA binding study” (Eur J Med Chem, 2021):
Values belong to the molecule of their own block, whether it stands above or below them. The source made the active and inactive calls. The calls are words filed in the database; no cut-off is given here.

Tests used:
NCI-H460 = assay: Antiproliferative activity against human NCI-H460 cells assessed as inhibition of cell growth incubated for 72 hrs by MTT assay; format: functional, cell-based; conditions: NCI-H460, 72 h
MCF7 = assay: Antiproliferative activity against human MCF7 cells assessed as inhibition of cell growth incubated for 72 hrs by MTT assay; format: functional, cell-based; conditions: MCF7, 72 h
HCT-116 = assay: Antiproliferative activity against human HCT-116 cells assessed as inhibition of cell growth incubated for 72 hrs by MTT assay; format: functional, cell-based; conditions: HCT-116, 72 h
Quadruplex DNA [1] = assay: Binding affinity to human Tel22 G quadruplex DNA assessed as ratio of fluorescence intensity of compound-polynucleotide complex to fluorescence intensity of compound in sodium cacodylate buffer at pH 7 at binding stoichiometry ratio of 1:1 by fluorescence spectroscopy; format: nucleic-acid assay
[2] = test system: Poly(dA-dT)oligonucleotide; assay: Binding affinity to poly(dAdT)2 DNA (unknown origin) assessed as ratio of fluorescence intensity of compound-polynucleotide complex to fluorescence intensity of compound in sodium cacodylate buffer at pH 7 by fluorescence spectroscopy based Scatchard method; format: nucleic-acid assay
[3] = test system: Poly(dA-dU)oligonucleotide; assay: Binding affinity to polyA-polyU RNA (unknown origin) assessed as ratio of fluorescence intensity of compound-polynucleotide complex to fluorescence intensity of compound in sodium cacodylate buffer at pH 7 by fluorescence spectroscopy based Scatchard method; format: nucleic-acid assay
[4] = test system: Poly(dG-dC)oligonucleotide; assay: Binding affinity to poly(dGdC)2 DNA (unknown origin) in sodium cacodylate buffer at pH 7 by CD spectroscopy; format: nucleic-acid assay
HEK293 = assay: Cytotoxicity against human HEK293 cells assessed as inhibition of cell growth incubated for 72 hrs by MTT assay; format: cell-based; conditions: HEK293, 72 h
[5] = test system: Poly(dA-dU)oligonucleotide; assay: Binding affinity to polyA-polyU RNA (unknown origin) in sodium cacodylate buffer at pH 7 by CD spectroscopy; format: nucleic-acid assay
[6] = test system: Poly(dG-dC)oligonucleotide; assay: Binding affinity to poly(dGdC)2 DNA (unknown origin) assessed as ratio of fluorescence intensity of compound-polynucleotide complex to fluorescence intensity of compound in sodium cacodylate buffer at pH 7 by fluorescence spectroscopy based Scatchard method; format: nucleic-acid assay
Quadruplex DNA [7] = assay: Binding affinity to human Tel22 G quadruplex DNA assessed as ratio of fluorescence intensity of compound-polynucleotide complex to fluorescence intensity of compound in sodium cacodylate buffer at pH 7 at binding stoichiometry ratio of 1:2 by fluorescence spectroscopy; format: nucleic-acid assay
[8] = test system: Poly(dA-dT)oligonucleotide; assay: Binding affinity to poly(dAdT)2 DNA (unknown origin) in sodium cacodylate buffer at pH 7 by CD spectroscopy; format: nucleic-acid assay
[9] = test system: Poly(dA-dU)oligonucleotide; assay: Binding affinity to polyA-polyU RNA (unknown origin) assessed as change in melting temperature in sodium cacodylate buffer at pH 7 at compound:polynucleotide concentration ratio of 0.3 by UV/vis spectrophotometric analysis; format: nucleic-acid assay
[10] = test system: Poly(dA-dU)oligonucleotide; assay: Binding affinity to polyA-polyU RNA (unknown origin) assessed as ratio of bound compound to polynucleotide phosphate in sodium cacodylate buffer at pH 7 by fluorescence spectroscopy based Scatchard method; format: nucleic-acid assay
Quadruplex DNA [11] = assay: Binding affinity to human Tel22 G quadruplex DNA assessed as binding constant in sodium cacodylate buffer at pH 7 at binding stoichiometry ratio of 1:1 by fluorescence spectroscopy; format: nucleic-acid assay
Quadruplex DNA [12] = assay: Binding affinity to human Tel22 G quadruplex DNA assessed as binding constant in sodium cacodylate buffer at pH 7 at binding stoichiometry ratio of 1:2 by fluorescence spectroscopy; format: nucleic-acid assay
Calf thymus DNA [13] = assay: Binding affinity to calf thymus DNA assessed as binding constant in sodium cacodylate buffer at pH 7 by fluorescence spectroscopy; conditions: Bos taurus
[14] = test system: Poly(dA-dT)oligonucleotide; assay: Binding affinity to poly(dAdT)2 DNA (unknown origin) assessed as ratio of bound compound to polynucleotide phosphate in sodium cacodylate buffer at pH 7 by fluorescence spectroscopy based Scatchard method; format: nucleic-acid assay
[15] = test system: Poly(dA-dU)oligonucleotide; assay: Binding affinity to polyA-polyU RNA (unknown origin) assessed as binding constant in sodium cacodylate buffer at pH 7 by fluorescence spectroscopy; format: nucleic-acid assay
Calf thymus DNA [16] = assay: Binding affinity to calf thymus DNA assessed as ratio of fluorescence intensity of compound-polynucleotide complex to fluorescence intensity of compound in sodium cacodylate buffer at pH 7 by fluorescence spectroscopy based Scatchard method; conditions: Bos taurus
Calf thymus DNA [17] = assay: Binding affinity to calf thymus DNA assessed as ratio of bound compound to polynucleotide phosphate in sodium cacodylate buffer at pH 7 by fluorescence spectroscopy based Scatchard analysis; conditions: Bos taurus
[18] = test system: Poly(dG-dC)oligonucleotide; assay: Binding affinity to poly(dGdC)2 DNA (unknown origin) assessed as binding constant in sodium cacodylate buffer at pH 7 by fluorescence spectroscopy; format: nucleic-acid assay
[19] = test system: Poly(dA-dT)oligonucleotide; assay: Binding affinity to poly(dAdT)2 DNA (unknown origin) assessed as change in melting temperature in sodium cacodylate buffer at pH 7 at compound:polynucleotide concentration ratio of 0.3 by UV/Vis spectrophotometric analysis; format: nucleic-acid assay
Quadruplex DNA [20] = assay: Binding affinity to human Tel22 G quadruplex DNA assessed as change in melting temperature in sodium cacodylate buffer at pH 7 by UV/Vis spectrophotometric analysis; format: nucleic-acid assay
[21] = test system: Poly(dG-dC)oligonucleotide; assay: Binding affinity to poly(dGdC)2 DNA (unknown origin) assessed as ratio of bound compound to polynucleotide phosphate in sodium cacodylate buffer at pH 7 by fluorescence spectroscopy based Scatchard method; format: nucleic-acid assay
Calf thymus DNA [22] = assay: Binding affinity to calf thymus DNA assessed as change in melting temperature in sodium cacodylate buffer at pH 7 at compound:polynucleotide concentration ratio of 0.3 by UV/Vis spectrophotometric analysis; format: nucleic-acid assay; conditions: Bos taurus
[23] = test system: Poly(dA-dT)oligonucleotide; assay: Binding affinity to poly(dAdT)2 DNA (unknown origin) assessed as binding constant in sodium cacodylate buffer at pH 7 by fluorescence spectroscopy; format: nucleic-acid assay
Quadruplex DNA [24] = assay: Binding affinity to human Tel22 G quadruplex DNA in sodium cacodylate buffer at pH 7 by CD spectroscopy; format: nucleic-acid assay

Compound: N#Cc1c(Cl)c2ccc(F)cc2n2c1nc1cccnc12
IC50 (NCI-H460): ≥ 100 µM
IC50 (MCF7): 2 µM
IC50 (HCT-116): 3 µM

Compound: N#Cc1c(Cl)c2ccc(F)cc2n2c1nc1ncccc12
IC50 (NCI-H460): ≥ 100 µM
IC50 (MCF7): 2 µM
IC50 (HCT-116): 3.5 µM

Compound: N#Cc1cc2ccc(F)cc2n2c1nc1ncccc12
IC50 (NCI-H460): ≥ 100 µM
IC50 (MCF7): ≥ 100 µM
IC50 (HCT-116): ≥ 100 µM

Compound: CC(C)CNc1ccc2cc(C#N)c3nc4ncccc4n3c2c1
IC50 (NCI-H460): 12 µM
IC50 (MCF7): 3 µM
IC50 (HCT-116): 3 µM

Compound: CN(C)CCCNc1ccc2cc(C#N)c3nc4cccnc4n3c2c1
Ratio (Quadruplex DNA [1]): 0.7
Ratio [2]: 0.7
Ratio [3]: 0.8
Activity [4]: Active
IC50 (HEK293): 0.3 µM
Activity [5]: Active
Ratio [6]: 0.4
Activity [8]: Active
ΔTm [9]: 9.5 °C
Ratio [10]: 0.1
IC50 (NCI-H460): 0.4 µM
log Ks (Quadruplex DNA [11]): 5.48
log Ks (Calf thymus DNA [13]): 5.5
Ratio [14]: 0.2
log Ks [15]: 6.3
Ratio (Calf thymus DNA [16]): 0.5
Ratio (Calf thymus DNA [17]): 0.6
log Ks [18]: 5.8
ΔTm [19]: 18.2 °C
ΔTm (Quadruplex DNA [20]): 1.9 °C
Ratio [21]: 0.2
Activity (Quadruplex DNA [24]): Active
ΔTm (Calf thymus DNA [22]): 6.6 °C
IC50 (MCF7): 0.7 µM
log Ks [23]: 6.9
IC50 (HCT-116): 0.4 µM

Compound: COc1cc([C@@H]2c3cc4c(cc3[C@@H](O[C@@H]3O[C@@H]5CO[C@@H](C)O[C@H]5[C@H](O)[C@H]3O)[C@H]3COC(=O)[C@H]23)OCO4)cc(OC)c1O [ETOPOSIDE]
IC50 (NCI-H460): 0.1 µM
IC50 (MCF7): 1 µM

Compound: CC(C)CNc1ccc2c(NCC(C)C)c(C#N)c3nc4cccnc4n3c2c1
IC50 (NCI-H460): 5.4 µM
IC50 (MCF7): 1.8 µM
IC50 (HCT-116): 3 µM

Compound: N#Cc1cc2ccc(N3CCNCC3)cc2n2c1nc1cccnc12
IC50 (HEK293): 0.7 µM
IC50 (NCI-H460): 0.4 µM
IC50 (MCF7): 0.4 µM
IC50 (HCT-116): 0.4 µM

Compound: N#Cc1cc2ccc(N3CCCCC3)cc2n2c1nc1cccnc12
IC50 (NCI-H460): ≥ 100 µM
IC50 (MCF7): 3 µM
IC50 (HCT-116): 5.5 µM

Second part, led by results:

Ratio (Quadruplex DNA [1]): 0.62
Ratio [2]: 1.3
Ratio [3]: 1.8
Activity [4]: Active
Activity [5]: Active
Ratio [6]: 0
Ratio (Quadruplex DNA [7]): 0.89
Activity [8]: Active
ΔTm [9]: 13.5 °C
Ratio [10]: 0.1
IC50 (NCI-H460): ≥ 100 µM
log Ks (Quadruplex DNA [11]): 5.33
log Ks (Quadruplex DNA [12]): 7.16
Ratio [14]: < 0.1
log Ks [15]: 6.5
log Ks [18]: 6.6
ΔTm [19]: 11.1 °C
ΔTm (Quadruplex DNA [20]): 2.5 °C
Ratio [21]: 0.2
ΔTm (Calf thymus DNA [22]): 6.6 °C
IC50 (MCF7): ≥ 100 µM
log Ks [23]: 6.8
IC50 (HCT-116): ≥ 100 µM
Compound: N#Cc1c(N2CCNCC2)c2ccc(N3CCNCC3)cc2n2c1nc1ncccc12
IC50 (HEK293): > 100 µM
log Ks (Calf thymus DNA [13]): 6.4
Ratio (Calf thymus DNA [16]): 0
Ratio (Calf thymus DNA [17]): 0.1

IC50 (NCI-H460): 2 µM
IC50 (MCF7): 3.2 µM
IC50 (HCT-116): 0.8 µM
Compound: CN(C)CCCNc1c(C#N)c2nc3ncccc3n2c2ccccc12
IC50 (HEK293): 2.6 µM

IC50 (NCI-H460): 7 µM
IC50 (MCF7): 3 µM
IC50 (HCT-116): 3.5 µM
Compound: N#Cc1c(N2CCNCC2)c2ccccc2n2c1nc1ncccc12

IC50 (NCI-H460): 7 µM
IC50 (MCF7): 3.6 µM
IC50 (HCT-116): 1.8 µM
Compound: N#Cc1c(N2CCCCC2)c2ccc(N3CCCCC3)cc2n2c1nc1ncccc12

IC50 (NCI-H460): 7 µM
IC50 (MCF7): 3.1 µM
IC50 (HCT-116): 0.9 µM
Compound: N#Cc1cc2ccc(N3CCNCC3)cc2n2c1nc1ncccc12
